{"source": "paper PMC9181691", "about": "“Characterization of the Biomass Degrading Enzyme GuxA from Acidothermus cellulolyticus” (International Journal of Molecular Sciences, 2022)", "biological_target": "T1, GuxA GH12 domain (Acidothermus cellulolyticus, UniProt A0LSH8)", "T1 construct": "gene Acel_0615; GH12 catalytic domain only (between CBM3 and CBM2 of full-length GuxA), codon optimized, C-terminal hexahistidine tag, pET22b(+), E. coli BL21(DE3), 24 kDa", "T1 sequence (A0LSH8 entry or part of it)": "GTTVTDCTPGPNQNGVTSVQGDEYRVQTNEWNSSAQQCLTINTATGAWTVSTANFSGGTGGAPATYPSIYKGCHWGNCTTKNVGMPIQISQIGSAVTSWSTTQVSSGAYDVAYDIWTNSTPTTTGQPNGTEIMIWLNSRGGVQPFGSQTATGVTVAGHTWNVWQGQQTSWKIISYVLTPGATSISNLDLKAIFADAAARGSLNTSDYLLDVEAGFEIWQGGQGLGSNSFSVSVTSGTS", "test": "X-ray crystallography, crystal soak", "assay_type": "binding", "settings": "24 h soak with excess cellobiose powder; crystals from 10% PEG 8K, 0.2 M ZnCl2, 0.1 M Na cacodylate pH 6.5; active site groove", "data": [{"compound": "OC[C@H]1O[C@@H](O[C@H]2[C@H](O)[C@@H](O)C(O)O[C@@H]2CO)[C@H](O)[C@@H](O)[C@@H]1O", "note": "(stereo partly shown) [cellobiose]", "values": [{"measurement": "X-ray crystallography, crystal soak", "result": "A cellobiose molecule was found and modeled in the active site groove."}]}]}
